What was measured:
[1] = tested on: P. yoelii (265 BY strain) hepatic stages; assay: In vitro assay for P. yoelii liver stage inhibition in primary mouse hepatocytes; format: cell-based; details: for IC50 / IC90: 48 h
Description: P. yoelii (265 BY strain) and P. falciparum (NF 54 strain) sporozoites were obtained by dissection of infected Anopheles stephensi salivary glands. Primary mouse hepatocytes were isolated as previously described and seeded in eight-well Lab-Tek plastic chamber slides (VWR, Fontenay-sous-Bois, France) previously coated with rat-tail collagen I (BD Biosciences, Le Pont de Claix, France) at a density of 10^5 cells per well. Mouse hepatocytes were cultured at 37 °C in 5% CO2 in William's E medium supplemented with 10% fetal calf serum, 1% L-glutamine, 1% sodium pyruvate, 1% insulin-transferrin-selenium, 1% nonessential amino acids, and 1% penicillin-streptomycin (all from Invitrogen, Cergy-Pontoise, France), for 24 h before inoculation of P. yoelii sporozoites (10^5 per well). Human liver fragments were collected following informed consent provided from patients undergoing a partial hepatectomy. The collection and use of these tissues were undertaken in accordance with French Government ethical regulations. Primary human hepatocytes were isolated from the healthy parts of these liver biopsies as previously described. Human hepatocytes were seeded in LabTek plastic chamber slides coated with collagen, at a density of 1.8 × 10^5 cells per well and cultured at 37 °C in 5% CO2 in the same medium as above, supplemented with 10^−7 M dexamethasone (Sigma) and 2% DMSO after complete cell adherence (12–24 h), for at least 48 h before inoculation of P. falciparum sporozoites (10^5 per well). For a standard assay, the plant extract, the purified compound, or primaquine was solubilized in DMSO, further diluted in culture medium (equal DMSO concentrations of <0.3% per well), and then added to hepatocyte cultures at the time of sporozoite inoculation. Three hours later, after sporozoite penetration into hepatocytes, cultures were washed and further incubated in the presence of the drug. Culture medium containing the appropriate drug concentration was changed daily until 48 h for P. yoelii, or until 5 d for P. falciparum. Parasites were quantified on the last day of incubation. For the in vitro timing experiments, tazopsine treatment of P. yoelii and P. falciparum cultures was undertaken for different periods during the cultivation: 0 h to 3 h, 3 h to 24 h, or 24 h to 48 h after P. yoelii sporozoite inoculation (quantification at 48 h), or 0 h to 2 d, or 3 d to 5 d after P. falciparum sporozoite inoculation (quantification at 5 d). […] Cells were stained with Evans Blue (0.4%), and parasites and cells nuclei were stained with 1 μg/ml of diamidino-phenylindole (DAPI; Sigma). Parasite numbers were counted under a fluorescence microscope with a 25× light microscope objective.
(§1) IC50 and TC50 were calculated by nonlinear regression using four-parameter logistic curves on the SigmaPlot 10.0 software (http://www.systat.com). Each IC50 or TC50 is expressed as a mean between two independent experiments, followed by the standard error of the mean.

[2] = tested on: primary mouse hepatocytes; assay: In vitro assay for cell viability (neutral red), mouse hepatocytes; format: cell-based; details: 48 h drug exposure
Description: Primary hepatocytes of mice or humans were prepared as above and seeded in 96-well plates coated with collagen, at a density of 5 × 10^4 and 7 × 10^4 cells per well, respectively. Drugs were added to the culture medium, which was changed daily after 24 h or 48 h of incubation for mouse and human hepatocytes, respectively. After 48 h of drug exposure (mouse hepatocytes) or 5 d (human hepatocytes), 50 μl of neutral red (Sigma) at 0.02% in phosphate-buffered saline (PBS) were added per well and incubated for 24 additional hours. Cultures were then washed with PBS and the neutral red extracted with 1% SDS from viable cells and quantified by measuring the OD540 on a microplate autoreader photometer (BioTek Instruments, Winooski, Vermont, United States).
as §1

[3] = tested on: P. falciparum clone 3D7 (chloroquine sensitive) erythrocytic stages; assay: In vitro assay for P. falciparum blood stages inhibition, clone 3D7; format: cell-based
Description: (§2) P. falciparum clone 3D7 (chloroquine sensitive) and clone FCR3 (chloroquine resistant) erythrocytic stages were cultured as described, and drug antiplasmodial activity was assessed by the standard method with minor modifications. Briefly, the compounds tazopsine and NCP-tazopsine solubilized in DMSO were further diluted in RPMI before adding to parasite cultures (0.5% parasitemia, mainly young trophozoites, and 1.8% final hematocrit), in a 2-fold dilution series. Plates were maintained for 24 h at 37 °C in 5% CO2. Then 0.5 μCi of [^3H]-hypoxanthine was added to each well, and cultures were incubated for a further 24 h. The growth inhibition was determined by comparison of the radioactivity incorporated into the treated cultures with that into the control cultures, by liquid scintillation counting.

[4] = tested on: P. falciparum clone FCR3 (chloroquine resistant) erythrocytic stages; assay: In vitro assay for P. falciparum blood stages inhibition, clone FCR3; format: cell-based
Description: as §2

[5] = tested on: P. yoelii blood stages; assay: In vivo assay: P. yoelii blood stages in mice
Description: In order to test for inhibitory activity against P. yoelii blood stages, four groups of five naive mice were inoculated (intraperitoneally) with 10^6 P. yoelii–infected red blood cells on day 0. Three hours later, one group was treated with tazopsine at 100 mg/kg, another with NCP-tazopsine at 200 mg/kg, whereas the other two groups acted as controls (respectively, water and 10% Tween 80). The doses were repeated daily until day +3. For the group treated with NCP- tazopsine and its control group, the animals were anesthetised 2 h following the administration of the last dose (day +3), and placed for 30 min over a cage with 100 female laboratory-bred A. stephensi. Oocysts were enumerated in 30 mosquito midguts dissected 8 d later, and the number of sporozoites in the salivary glands dissected from 30 insects was ascertained a further 7 d later. All the experiments were performed in two independent duplicates, and enumeration of parasites in blood smears and mosquitoes was conducted in a blinded fashion.

[6] = Oral toxicity in mice

COC1=C2[C@H]3NCC[C@]2(C[C@H](O)[C@@H]1O)c1c(ccc(OC)c1O)[C@H]3O [Tazopsine, tazopsine]
phase of hepatic development most susceptible to inhibition ([1]; P. yoelii, exposure 0-3 h, 3-24 h or 24-48 h): most pronounced during the early developmental stages of the hepatic parasite (3 to 24 h)
IC80 ([1]; Plasmodium yoelii, Hepatocyte): 5 µM
IC50 ([1]; Plasmodium yoelii, Hepatocyte): 3.1 ± 0.1 µM
IC90 ([1]; Plasmodium yoelii, Hepatocyte): 6.3 ± 0.8 µM
concentration giving total inhibition ([1]; cultured P. yoelii hepatic stages): ≥ 7.1 µM
Sporozoite invasion and differentiation into early hepatic stages ([1]; exposure 0-3 h postinfection, suboptimal inhibitory concentrations): not affected
TC50 [2]: 43.7 ± 1.6 µM
IC50 ([3]; Plasmodium falciparum, 3D7): 4.7 ± 0.9 µM
IC50 ([4]; Plasmodium falciparum, FCR3): 5.7 ± 2.1 µM
inhibition of the erythrocytic multiplication cycle ([5]; 100 mg/kg daily, mice challenged with P. yoelii-infected blood (unpublished data)): No significant inhibition
oral dose above which toxic to mice ([6]; given daily over 4 d): exceeding 100 mg/kg

COC1=C2[C@@H]3[C@H](O)c4ccc(OC)c(O)c4[C@]2(CCN3C2CCCC2)C[C@H](O)[C@@H]1O [NCP-tazopsine, N-cyclopentyl-tazopsine]
IC50 ([1]; Plasmodium yoelii, Hepatocyte): 3.3 ± 0.05 µM
IC90 ([1]; Plasmodium yoelii, Hepatocyte): 5.2 ± 1.4 µM
TC50 [2]: 150.5 ± 9.5 µM
effect on multiplication of cultured erythrocytic P. falciparum ([3]; 3D7 line, up to concentrations of 600 μM): did not have any detectable effect
effect on multiplication of cultured erythrocytic P. falciparum ([4]; FCR3 line, up to concentrations of 600 μM): did not have any detectable effect
effect on blood stage parasite multiplication ([5]; fully protective dose (200 mg/kg), mice inoculated with P. yoelii-infected blood (unpublished data)): no effect
toxicity to mice ([6]; up to doses of 400 mg/kg for 4 d): not found to be toxic
